Laboratory results reported in US10214522B2, “Anti-alphavbeta1 integrin inhibitors and methods of use” (The Regents of the University of California, priority 2015, dated 2019).

These compounds were tested against T1, αvβ1 integrin (UniProt G3HZ55+P06756) (assay: Cell Adhesion Assay (integrin-specific adhesion, αvβ1)). Settings: CHO cells transfected with human αv adhering to 0.3 μg/ml fibronectin; read-out: Cell Adhesion Assay IC50 range.
T1 construct: expressed in transfected cells; host or cells: CHO cells (elsewhere described as α5-deficient CHO) transfected with human αv
Format: cell-based
Experimental: The effects of compounds on cell adhesion mediated by […], α8β1, αvβ1, αvβ3, αvβ5, αvβ6, and αvβ8 are measured using pairs of cell lines and ligands selected to isolate the effect of each individual integrin. For α5β1 we utilize the colon carcinoma cell line, SW480, plated on 0.3 μg/ml fibronectin, for α8β1, we utilize SW480 cells transfected with human α8 adhering to 1 μg/ml recombinant TGFβ1 LAP [5], for αvβ1 we use Chinese Hamster Ovary Cells (CHO cells) transfected with human αv adhering to 0.3 μg/ml fibronectin [6], for αvβ3 we use SW480 cells transfected with human β3, for αvβ5 we use wild type SW480 cells adhering to 0.1 μg/ml vitronectin. For αvβ6 we use SW480 cells transfected with human β6 adhering to 0.01 μg/ml recombinant human TGFβ1 LAP. For αvβ8 we use glioma cell line (SNB19) expressing β8 adhering to 1 μg/ml recombinant human TGFβ1 LAP.
(§1) The effects of the compound on cell adhesion mediated by αvβ1 integrin were measured using Chinese Hamster Ovary Cells (CHO cells) transfected with human αv adhering to 0.3 μg/ml fibronectin. In every case, we confirmed that adhesion could be inhibited by blocking antibodies to αv and β1. Cells were resuspended in DMEM for 30 min at 4° C. with 10-fold dilutions of the compound with a starting concentration of 10 μM. Each sample was then added to triplicate wells of a 96-well plate which had been coated overnight at 4° C. with the relevant ligand, washed, blocked by 1 hr incubation with 1% BSA, and washed again. Cells were allowed to attach for 30-60 min at 37° C. After incubation, non-adherent cells were removed by discarding the media and spinning the plate top-side down at 500 rpm for 5 minutes. Cells were then fixed and stained with 40 ul of 0.5% Crystal violet, 1% Formaldehyde, 20% Methanol for 30 minutes and lysed with 2% Trition-X. Absorbance was measured at 595 nm in a Microplate reader. For all assays, concentration-response curves were constructed by non-linear regression analysis and IC50 values using Graphpad PRISM (ver 6.0).
as §1, with “Integrin specific” for “effects of the compound on cell”, “assays” for “mediated by αvβ1 integrin”, “In every case, we confirmed that adhesion could be inhibited by blocking antibodies to αv and β1.” left out

T1 sequence (P06756 31-889 limits assumed): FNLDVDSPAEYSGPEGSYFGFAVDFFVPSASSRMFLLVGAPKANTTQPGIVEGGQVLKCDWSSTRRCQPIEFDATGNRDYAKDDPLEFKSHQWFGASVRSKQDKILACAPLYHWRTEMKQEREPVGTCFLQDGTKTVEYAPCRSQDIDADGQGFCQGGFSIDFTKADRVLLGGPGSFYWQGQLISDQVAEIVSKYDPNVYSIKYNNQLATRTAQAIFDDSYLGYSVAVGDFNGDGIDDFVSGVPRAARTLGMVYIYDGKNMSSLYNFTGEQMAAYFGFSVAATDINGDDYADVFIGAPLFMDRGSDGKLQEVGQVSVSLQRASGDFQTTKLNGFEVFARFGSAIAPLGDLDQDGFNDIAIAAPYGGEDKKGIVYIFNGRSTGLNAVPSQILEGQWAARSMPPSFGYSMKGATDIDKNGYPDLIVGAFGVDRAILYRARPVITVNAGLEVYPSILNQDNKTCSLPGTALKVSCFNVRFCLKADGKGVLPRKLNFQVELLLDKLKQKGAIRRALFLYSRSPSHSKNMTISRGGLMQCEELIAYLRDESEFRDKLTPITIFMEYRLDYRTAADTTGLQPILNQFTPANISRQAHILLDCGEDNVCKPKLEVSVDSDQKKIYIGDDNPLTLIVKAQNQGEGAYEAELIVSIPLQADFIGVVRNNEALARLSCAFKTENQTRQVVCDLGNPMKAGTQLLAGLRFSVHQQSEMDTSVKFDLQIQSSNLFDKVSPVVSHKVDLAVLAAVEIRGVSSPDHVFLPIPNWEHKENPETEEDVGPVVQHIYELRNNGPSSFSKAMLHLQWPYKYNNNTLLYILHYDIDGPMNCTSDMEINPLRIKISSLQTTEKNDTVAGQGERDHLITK
T1 sequence (P06756 891-1048 limits assumed): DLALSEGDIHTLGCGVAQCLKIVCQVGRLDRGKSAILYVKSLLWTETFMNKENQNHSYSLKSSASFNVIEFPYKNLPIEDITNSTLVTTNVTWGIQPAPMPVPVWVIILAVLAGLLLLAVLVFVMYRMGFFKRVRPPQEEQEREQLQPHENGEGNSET
T1 sequence (G3HZ55 21-798): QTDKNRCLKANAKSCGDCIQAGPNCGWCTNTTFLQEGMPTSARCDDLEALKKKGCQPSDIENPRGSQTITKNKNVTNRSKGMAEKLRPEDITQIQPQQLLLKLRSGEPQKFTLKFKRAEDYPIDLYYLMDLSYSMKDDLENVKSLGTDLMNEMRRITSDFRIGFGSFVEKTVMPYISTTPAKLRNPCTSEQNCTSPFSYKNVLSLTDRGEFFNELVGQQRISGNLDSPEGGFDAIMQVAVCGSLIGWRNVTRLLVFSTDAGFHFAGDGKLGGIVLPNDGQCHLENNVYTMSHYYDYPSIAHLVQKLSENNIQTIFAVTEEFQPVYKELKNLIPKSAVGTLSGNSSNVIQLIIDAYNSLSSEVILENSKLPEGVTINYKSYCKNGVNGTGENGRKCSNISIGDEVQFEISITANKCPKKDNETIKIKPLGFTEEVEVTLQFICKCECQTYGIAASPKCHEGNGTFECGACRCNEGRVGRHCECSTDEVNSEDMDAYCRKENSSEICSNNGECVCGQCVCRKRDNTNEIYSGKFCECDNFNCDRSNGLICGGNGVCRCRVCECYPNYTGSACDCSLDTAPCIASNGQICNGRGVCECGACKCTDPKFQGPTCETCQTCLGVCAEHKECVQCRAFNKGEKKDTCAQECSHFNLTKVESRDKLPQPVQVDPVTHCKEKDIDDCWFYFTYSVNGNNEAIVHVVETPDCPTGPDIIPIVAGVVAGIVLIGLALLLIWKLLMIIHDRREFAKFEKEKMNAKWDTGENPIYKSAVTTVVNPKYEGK

Q: For `COc1cccc(OC)c1C(=O)N[C@@H](Cc1ccc(NC(=O)CCCNc2ccccn2)cc1)C(=O)O` [HIJ-886, (S)-2-(2,6-dimethoxybenzamido)-3-(4-(4-(pyridin-2-ylamino)butanamido)phenyl)propanoic acid], which IC50 is on record?
A: 100 to 10000 nM

Q: With `Cc1cccc(Cl)c1C(=O)N[C@@H](Cc1ccc(NC(=O)CCCNc2ccccn2)cc1)C(=O)O` [HIJ-888, (S)-2-(2-chloro-6-methylbenzamido)-3-(4-(4-(pyridin-2-ylamino)butanamido)phenyl)propanoic acid] as the compound, how does the IC50 read?
A: 100 to 10000 nM

Q: For `O=C(CCCNc1ccccn1)Nc1ccc(C[C@H](NC(=O)c2c(F)cccc2Br)C(=O)O)cc1` [HIJ-889, (S)-2-(2-bromo-6-fluorobenzamido)-3-(4-(4-(pyridin-2-ylamino)butanamido)phenyl)propanoic acid], which IC50 is on record?
A: < 100 nM

Q: `Cc1cccc(C)c1C(=O)N[C@@H](Cc1ccc(NC(=O)CCCNc2ccccn2)cc1)C(=O)O` [HIJ-890, (S)-2-(2,6-dimethylbenzamido)-3-(4-(4-(pyridin-2-ylamino)butanamido)phenyl)propanoic acid] was tested. Which IC50 did it give?
A: < 100 nM

Q: `CSc1ccccc1C(=O)N[C@@H](Cc1ccc(NC(=O)CCCNc2ccccn2)cc1)C(=O)O` [HIJ-891, (S)-2-(2-(methylthio)benzamido)-3-(4-(4-(pyridin-2-ylamino)butanamido)phenyl)propanoic acid] was tested. Which IC50 did it give?
A: 100 to 10000 nM

Q: `O=C(CCCNc1ccccn1)Nc1ccc(C[C@H](NC(=O)c2cccc(-c3ccccc3)c2)C(=O)O)cc1` [HIJ-892, (S)-2-([1,1′-biphenyl]-3-carboxamido)-3-(4-(4-(pyridin-2-ylamino)butanamido)phenyl)propanoic acid] was tested. Which IC50 did it give?
A: 100 to 10000 nM

Q: Which IC50 does the source give for `Cc1ccnc(NCCCC(=O)Nc2ccc(C[C@H](NC(=O)c3c(Cl)cccc3Cl)C(=O)O)cc2)c1` [HU-899] here?
A: < 100 nM

Q: For `N=C(N)NCCc1cn(-c2ccc(C[C@H](NC(=O)c3c(Cl)cccc3Cl)C(=O)O)cc2)nn1` [JM-39, (S)-2-(2,6-dichlorobenzamido)-3-(4-(4-(2-guanidinoethyl)-1H-1,2,3-triazol-1-yl)phenyl)propanoic acid], which IC50 is on record?
A: 100 to 10000 nM

Q: Which IC50 does the source give for `O=C(CCCCNC1=NCCN1)Nc1ccc(C[C@H](NC(=O)c2c(Cl)cccc2Cl)C(=O)O)cc1` [JM-61] here?
A: 100 to 10000 nM

Q: How did the IC50 turn out when `N=C(N)NCCCn1cc(-c2ccc(C[C@H](NC(=O)c3c(Cl)cccc3Cl)C(=O)O)cc2)nn1` [JM-141] was run?
A: < 100 nM

Q: With `N=C(N)Nc1ccc2c(c1)C(=O)N(c1ccc(C[C@H](NC(=O)c3c(Cl)cccc3Cl)C(=O)O)cc1)CC2` [JM-175] as the compound, how does the IC50 read?
A: 100 to 10000 nM

Q: With `N=C(N)NCCCc1coc(-c2ccc(C[C@H](NC(=O)c3c(Cl)cccc3Cl)C(=O)O)cc2)n1` [JM-185] as the compound, how does the IC50 read?
A: 100 to 10000 nM

Q: `N=C(N)NCCCc1csc(-c2ccc(C[C@H](NC(=O)c3c(Cl)cccc3Cl)C(=O)O)cc2)n1` [JM-192] was tested. Which IC50 did it give?
A: 100 to 10000 nM

Q: Which IC50 does the source give for `O=C(N[C@@H](Cc1ccc(-n2cc(CNc3ccccn3)nn2)cc1)C(=O)O)c1c(Cl)cccc1Cl` [JM-230] here?
A: 100 to 10000 nM

Q: For `O=C(CCCCNc1ccccn1)Nc1ccc(C[C@H](NC(=O)c2c(Cl)cccc2Cl)C(=O)O)cc1` [YT-43], which IC50 is on record?
A: 100 to 10000 nM

Q: How did the IC50 turn out when `O=C(CCCc1ccc2c(n1)NCCC2)Nc1ccc(C[C@H](NC(=O)c2c(Cl)cccc2Cl)C(=O)O)cc1` [YT-101] was run?
A: 100 to 10000 nM

Q: For `O=C(CCCNc1ccccn1)Nc1ccc(C[C@H](NC(=O)c2c(Cl)cccc2Cl)C(=O)O)cc1` [YT-103, (S)-2-(2,6-dichlorobenzamido)-3-(4-(4-(pyridin-2-ylamino)butanamido)phenyl)propanoic acid], which IC50 is on record?
A: < 100 nM

Q: How did the IC50 turn out when `N=C(N)NCCCC(=O)Nc1ccc(C[C@H](NC(=O)c2c(Cl)cccc2Cl)C(=O)O)cc1` [YT-107] was run?
A: 100 to 10000 nM

Q: Which IC50 does the source give for `O=C(CCCCc1ccc2c(n1)NCCC2)Nc1ccc(C[C@H](NC(=O)c2c(Cl)cccc2Cl)C(=O)O)cc1` [YT-115] here?
A: 100 to 10000 nM

Q: With `O=C(CCc1ccc2c(n1)NCCC2)Nc1ccc(C[C@H](NC(=O)c2c(Cl)cccc2Cl)C(=O)O)cc1` [YT-119] as the compound, how does the IC50 read?
A: < 100 nM
